The source of these data is ChEMBL document CHEMBL1649565, “Besifloxacin, a novel fluoroquinolone, has broad-spectrum in vitro activity against aerobic and anaerobic bacteria” (Antimicrob Agents Chemother, 2009).

As usually defined, the MIC is the lowest concentration found to suppress growth. Low readings indicate a more susceptible organism, high ones a less susceptible organism. The MIC50 is the lowest concentration that inhibits either 50% of growth or 50% of the strains tested, depending on the study. The MIC90 is an inhibitory concentration at the 90% level, which refers to growth in some studies and to a panel of isolates in others.

Experiment [1] deals with Fusobacterium sp. The experiment in a line: Antibacterial activity against Fusobacterium sp. assessed as percent susceptible isolates by CLSI M11-A7 method. Type of experiment: functional.
Experiment [2] deals with Bacteroides fragilis. The experiment in a line: Antibacterial activity against Bacteroides fragilis by CLSI M11-A7 method. The class given is functional.
For experiment [3], the system named is Peptostreptococcus sp. The experiment in a line: Antibacterial activity against Peptostreptococcus sp. assessed as percent susceptible isolates by CLSI M11-A7 method. The class given is functional.
Experiment [4] relates to Peptostreptococcus sp. As to the kind of experiment: Antibacterial activity against Peptostreptococcus sp. by CLSI M11-A7 method. Type of experiment: functional.
In a further experiment the test system is Clostridium perfringens. As to the kind of experiment: Antibacterial activity against Clostridium perfringens by CLSI M11-A7 method. The class given is functional.
The test system of experiment [5] is Cutibacterium acnes. As to the kind of experiment: Antibacterial activity against Propionibacterium acnes assessed as percent susceptible isolates by CLSI M11-A7 method. Type of experiment: functional.
Experiment [6] concerns Fusobacterium sp. The experiment in a line: Antibacterial activity against Fusobacterium sp. by CLSI M11-A7 method. Type of experiment: functional.
Experiment [7] concerns Prevotella sp. The experiment in a line: Antibacterial activity against Prevotella sp. assessed as percent susceptible isolates by CLSI M11-A7 method. Type of experiment: functional.
Experiment [8] concerns Prevotella sp. As to the kind of experiment: Antibacterial activity against Prevotella sp. by CLSI M11-A7 method. Type of experiment: functional.
Experiment [9] deals with Cutibacterium acnes. As to the kind of experiment: Antibacterial activity against Propionibacterium acnes by CLSI M11-A7 method. Type of experiment: functional.
Experiment [10] deals with Bacteroides fragilis. The experiment in a line: Antibacterial activity against Bacteroides fragilis assessed as percent susceptible isolates by CLSI M11-A7 method. Type of experiment: functional.
Experiment [11] relates to Staphylococcus epidermidis.
Experiment [12] has as its system Staphylococcus epidermidis. This is another data set of the same source.
The subject of experiment [13] is Staphylococcus aureus. As to the kind of experiment: Antibacterial activity against non-ciprofloxacin-susceptible and methicillin-susceptible Staphylococcus aureus by CLSI M100-S18 method. The class given is functional.
For experiment [14], the system named is Staphylococcus lugdunensis. As to the kind of experiment: Antibacterial activity against Staphylococcus lugdunensis by CLSI M100-S18 method. The class given is functional.
Experiment [15] has as its system Staphylococcus warneri. The experiment in a line: Antibacterial activity against Staphylococcus warneri by CLSI M100-S18 method. Type of experiment: functional.
Experiment [16] has as its system Staphylococcus haemolyticus. As to the kind of experiment: Antibacterial activity against Staphylococcus haemolyticus by CLSI M100-S18 method. The class given is functional.
Experiment [17] has as its system Staphylococcus lugdunensis. The experiment in a line: Antibacterial activity against Staphylococcus lugdunensis assessed as percent susceptible isolates by CLSI M100-S18 method. Type of experiment: functional.
Experiment [18] relates to Staphylococcus epidermidis. As to the kind of experiment: Antibacterial activity against ciprofloxacin-susceptible and methicillin-resistant Staphylococcus epidermidis by CLSI M100-S18 method. The class given is functional.
Experiment [19] relates to Staphylococcus epidermidis. As to the kind of experiment: Antibacterial activity against non-ciprofloxacin-susceptible and methicillin-susceptible Staphylococcus epidermidis assessed as percent susceptible isolates by CLSI M100-S18 method. Type of experiment: functional.
Experiment [20] concerns Staphylococcus saprophyticus. The experiment in a line: Antibacterial activity against Staphylococcus saprophyticus by CLSI M100-S18 method. Type of experiment: functional.
Experiment [21] has as its system Staphylococcus aureus. As to the kind of experiment: Antibacterial activity against non-ciprofloxacin-susceptible and methicillin-susceptible Staphylococcus aureus assessed as percent susceptible isolates by CLSI M100-S18 method. The class given is functional.
Experiment [22] relates to Staphylococcus hominis. The experiment in a line: Antibacterial activity against Staphylococcus hominis assessed as percent susceptible isolates by CLSI M100-S18 method. The class given is functional.
Experiment [23] relates to Staphylococcus aureus. As to the kind of experiment: Antibacterial activity against ciprofloxacin-susceptible and methicillin-resistant Staphylococcus aureus by CLSI M100-S18 method. Type of experiment: functional.
Experiment [24] has as its system Staphylococcus haemolyticus. As to the kind of experiment: Antibacterial activity against Staphylococcus haemolyticus assessed as percent susceptible isolates by CLSI M100-S18 method. The class given is functional.
The test system of experiment [25] is Staphylococcus aureus. As to the kind of experiment: Antibacterial activity against ciprofloxacin-susceptible and methicillin-resistant Staphylococcus aureus assessed as percent susceptible isolates by CLSI M100-S18 method. The class given is functional.
In experiment [26] the test system is Staphylococcus warneri. As to the kind of experiment: Antibacterial activity against Staphylococcus warneri assessed as percent susceptible isolates by CLSI M100-S18 method. The class given is functional.
Experiment [27] concerns Staphylococcus saprophyticus. As to the kind of experiment: Antibacterial activity against Staphylococcus saprophyticus assessed as percent susceptible isolates by CLSI M100-S18 method. The class given is functional.
The test system of experiment [28] is Staphylococcus epidermidis. As to the kind of experiment: Antibacterial activity against non-ciprofloxacin-susceptible and methicillin-susceptible Staphylococcus epidermidis by CLSI M100-S18 method. Type of experiment: functional.
For experiment [29], the system named is Staphylococcus epidermidis. As to the kind of experiment: Antibacterial activity against ciprofloxacin-susceptible and methicillin-resistant Staphylococcus epidermidis assessed as percent susceptible isolates by CLSI M100-S18 method. The class given is functional.
For a further experiment, the system named is Moraxella catarrhalis. As to the kind of experiment: Antibacterial activity against Moraxella catarrhalis by CLSI M7-A7 method. Type of experiment: functional.
For experiment [30], the system named is Staphylococcus hominis. The experiment in a line: Antibacterial activity against Staphylococcus hominis by CLSI M100-S18 method. Type of experiment: functional.

Structures are written as SMILES. Converted amounts (≈) assume the structure as drawn. The source made the active and inactive calls. No cut-off for these calls is given here. Some results are limits rather than exact numbers.

For the molecule `Cc1ncc([N+](=O)[O-])n1CCO` [METRONIDAZOLE], the Activity came to 100% with Fusobacterium sp. [1]; 98.1% with Peptostreptococcus sp. [3]; 0% in the experiment on Cutibacterium acnes [5]; 100% in the experiment with Prevotella sp. [7]; 100% in the experiment with Bacteroides fragilis [10]. Besides, the MIC with Bacteroides fragilis [2] is 2 µg/mL (≈ 11.7 µM); against Cutibacterium acnes [9] it was more than 16 µg/mL. Further, the MIC50 against Bacteroides fragilis [2] is 2 µg/mL (≈ 11.7 µM); against Peptostreptococcus sp. [4] it was 0.5 µg/mL (≈ 2.92 µM); against Clostridium perfringens, 2 µg/mL (≈ 11.7 µM); against Fusobacterium sp. [6] it was 0.25 µg/mL (≈ 1.46 µM); with Prevotella sp. [8], 4 µg/mL (≈ 23.4 µM); in the experiment on Cutibacterium acnes [9], more than 16 µg/mL. The MIC90 is 2 µg/mL (≈ 11.7 µM) in the experiment on Bacteroides fragilis [2]; 1 µg/mL (≈ 5.84 µM) against Peptostreptococcus sp. [4]; 4 µg/mL (≈ 23.4 µM) in the experiment on Clostridium perfringens; 1 µg/mL (≈ 5.84 µM) in the experiment with Fusobacterium sp. [6]; 4 µg/mL (≈ 23.4 µM) in the experiment on Prevotella sp. [8]; more than 16 µg/mL with Cutibacterium acnes [9].

In the case of `COc1c(N2C[C@@H]3CCCN[C@@H]3C2)c(F)cc2c(=O)c(C(=O)O)cn(C3CC3)c12`, the MIC90 entry in experiment [11] and in [12] was “inactive” each time.

On to `Cc1onc(-c2ccccc2)c1C(=O)N[C@@H]1C(=O)N2[C@@H]1SC(C)(C)[C@@H]2C(=O)O` [OXACILLIN], for which the MIC90 entry in experiment [11] and in experiment [12] was “inactive” in each case. Moreover, the MIC50 with Staphylococcus aureus [13] is more than 8 µg/mL; in experiment [14], 0.5 µg/mL (≈ 1.25 µM); in the experiment with Staphylococcus warneri [15] it was 0.5 µg/mL (≈ 1.25 µM); in [16] it was more than 8 µg/mL; in experiment [18], 0.12 µg/mL (≈ 0.299 µM); in experiment [20], 0.5 µg/mL (≈ 1.25 µM). The MIC50 was 0.25 µg/mL (≈ 0.623 µM) with Staphylococcus aureus [23], 1 µg/mL (≈ 2.49 µM) in experiment [28], 4 µg/mL (≈ 9.96 µM) in the experiment on Moraxella catarrhalis and more than 8 µg/mL against Staphylococcus hominis [30]. The MIC90 against Staphylococcus aureus [13] was more than 8 µg/mL; in experiment [14] it was more than 8 µg/mL; with Staphylococcus warneri [15] it was more than 8 µg/mL; in experiment [16], more than 8 µg/mL; in [20] it was 1 µg/mL (≈ 2.49 µM); with Staphylococcus aureus [23], more than 8 µg/mL. The MIC90 with Moraxella catarrhalis is 8 µg/mL (≈ 19.9 µM); against Staphylococcus hominis [30] it was more than 8 µg/mL. Also, the Activity in experiment [17] is 60%; in [19], 16.7%; in the experiment with Staphylococcus aureus [21], 36.4%; in the experiment with Staphylococcus hominis [22], 16%; in [24], 31.7%; in the experiment on Staphylococcus aureus [25], 78.9%. In addition, the Activity with Staphylococcus warneri [26] turned out to be 46%; in experiment [27], 9.9%; in experiment [29], 55.6%.
